Reference: PubChem BioAssay (NCI)
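96-well plates; 48 h exposure; 5 concentrations. Endpoints by linear interpolation between flanking doses. Not reached: highest tested concentration assigned. TGI: total growth inhibition.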

Assays:
Experiment in all cases: growth of human tumour cells (NCI), 48 h
[1] = system: OVCAR-3 ovarian
[2] = system: SNB-19 CNS
[3] = system: HCC-2998 colon
[4] = system: K-562 leukemia
[5] = system: RPMI-8226 leukemia
[6] = system: NCI/ADR-RES ovarian
[7] = system: KM12 colon
[8] = system: TK-10 renal
[9] = system: OVCAR-8 ovarian
[10] = system: MCF7 breast
[11] = system: MOLT-4 leukemia
[12] = system: MDA-MB-231 breast
[13] = system: ACHN renal
[14] = system: T-47D breast
[15] = system: UACC-257 melanoma
[16] = system: SR leukemia
[17] = system: UO-31 renal
[18] = system: UACC-62 melanoma
[19] = system: SW-620 colon
[20] = system: SNB-75 CNS
[21] = system: RXF 393 renal
[22] = system: SN12C renal
[23] = system: DU-145 prostate
[24] = system: BT-549 breast
[25] = system: HT29 colon
[26] = system: MDA-MB-435
[27] = system: IGROV1 ovarian
[28] = system: SK-MEL-5 melanoma
[29] = system: SK-MEL-2 melanoma
[30] = system: OVCAR-4 ovarian
[31] = system: U251 CNS
[32] = system: NCI-H522 lung
[33] = system: CAKI-1 renal
[34] = system: PC-3 prostate
[35] = system: CCRF-CEM leukemia
[36] = system: SF-295 CNS
[37] = system: SF-539 CNS
[38] = system: HOP-92 NSCLC
[39] = system: NCI-H460 lung
[40] = system: 786-0 renal
[41] = system: HOP-62 NSCLC
[42] = system: A498 renal
[43] = system: A549 NSCLC
[44] = system: NCI-H226 lung
[45] = system: LOX IMVI melanoma
[46] = system: HCT-116 colon
[47] = system: HCT-15 colon
[48] = system: COLO 205 colon
[49] = system: SK-MEL-28 melanoma
[50] = system: M14 melanoma
[51] = system: OVCAR-5 ovarian
[52] = system: SF-268 CNS
[53] = system: HL-60(TB) leukemia
[54] = system: HS 578T breast
[55] = system: NCI-H23 lung
[56] = system: MDA-N
[57] = system: MALME-3M melanoma
[58] = system: SK-OV-3 ovarian
[59] = system: EKVX NSCLC

Measured: TGI

CC1(C)CC(=O)c2c(-c3ccc(Cl)cc3)c(C#N)c(=S)n(C3OC(CO)C(O)C(O)C3O)c2C1 (stereo unspecified)
80.8 µM: [26]
92.8 µM: [48]
98.4 µM: [20]
34.8 µM: [28]
73 µM: [44]
89.6 µM: [14]
49.4 µM: [45]
90.7 µM: [1]
96.7 µM: [38]
58.3 µM: [56]
43.9 µM: [29]
98.2 µM: [15]
41.6 µM: [18]
52.1 µM: [34]
57.3 µM: [4]
98.8 µM: [17]
not listed: [58] | [59]
> 100 µM: all other assays above

CC(=O)Oc1ccc2c(c1)[nH]c1c3ccc(OC(C)=O)cc3oc(=O)c21
71.9 µM: [1]
88.2 µM: [12]
48.9 µM: [14]
98.8 µM: [35]
68.2 µM: [21] | [24]
75 µM: [52]
71.7 µM: [16]
67.7 µM: [3]
86.1 µM: [59]
76.5 µM: [44]
90.4 µM: [10]
78.1 µM: [46]
68.9 µM: [28]
78.3 µM: [13]
not listed: [5] | [29] | [42] | [45] | [53]
> 100 µM: all other assays above
